Inhibition data for one molecule are collected here from PMC6934184, “Selective DNA-PKcs inhibition extends the therapeutic index of localized radiotherapy and chemotherapy” (The Journal of Clinical Investigation, 2019).

The target in the assay is T1, AMPK (A1/B2/G1) (Homo sapiens, UniProt Q13131).
T1 construct: purchased Thermo Fisher Scientific (Life Technologies) SelectScreen
Put plainly: SelectScreen LanthaScreen. Format: binding. To be noted: read-out: % displacement. The procedure, abridged: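 Percent values come from Thermo SelectScreen profiling of NU5455, combining activity and binding assays. CSF1R was run in Z'LYTE format at Km app ATP, and CAMK1 in Adapta format with ATP listed at 10.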
(TR-FRET usually uses a lanthanide donor and a delayed reading to cut background.)

T1 sequence (Q13131 whole entry): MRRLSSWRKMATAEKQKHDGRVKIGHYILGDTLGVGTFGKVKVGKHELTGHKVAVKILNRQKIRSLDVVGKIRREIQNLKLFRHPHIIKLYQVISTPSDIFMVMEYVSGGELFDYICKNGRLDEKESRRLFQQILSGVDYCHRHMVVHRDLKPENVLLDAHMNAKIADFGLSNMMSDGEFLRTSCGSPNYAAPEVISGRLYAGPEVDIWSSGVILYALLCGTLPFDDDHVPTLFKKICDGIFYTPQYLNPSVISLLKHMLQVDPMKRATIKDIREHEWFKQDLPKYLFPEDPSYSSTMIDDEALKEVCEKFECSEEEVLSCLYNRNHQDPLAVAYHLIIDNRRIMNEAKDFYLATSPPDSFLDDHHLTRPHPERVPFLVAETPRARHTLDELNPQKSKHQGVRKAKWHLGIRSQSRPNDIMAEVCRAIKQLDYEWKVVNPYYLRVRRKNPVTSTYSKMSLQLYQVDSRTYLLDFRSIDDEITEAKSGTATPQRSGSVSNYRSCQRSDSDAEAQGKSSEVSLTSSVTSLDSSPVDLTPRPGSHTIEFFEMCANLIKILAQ
T1 sequence (O43741 whole entry partner): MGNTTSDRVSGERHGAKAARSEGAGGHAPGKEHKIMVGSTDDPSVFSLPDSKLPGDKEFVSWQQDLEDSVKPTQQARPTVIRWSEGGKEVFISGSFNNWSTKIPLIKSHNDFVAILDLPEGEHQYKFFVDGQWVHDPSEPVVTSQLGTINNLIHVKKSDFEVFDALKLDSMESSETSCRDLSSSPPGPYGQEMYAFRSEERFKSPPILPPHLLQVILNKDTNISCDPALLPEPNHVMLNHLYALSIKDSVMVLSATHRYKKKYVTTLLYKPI
T1 sequence (P54619 whole entry partner): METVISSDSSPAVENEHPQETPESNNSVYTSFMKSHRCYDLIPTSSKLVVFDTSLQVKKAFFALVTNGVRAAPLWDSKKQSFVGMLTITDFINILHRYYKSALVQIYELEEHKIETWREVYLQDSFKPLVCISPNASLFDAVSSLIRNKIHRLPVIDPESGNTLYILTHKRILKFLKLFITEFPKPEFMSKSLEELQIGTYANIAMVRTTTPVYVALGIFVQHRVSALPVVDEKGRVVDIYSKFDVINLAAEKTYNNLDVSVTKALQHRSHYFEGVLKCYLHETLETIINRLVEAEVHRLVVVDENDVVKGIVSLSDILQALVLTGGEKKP

For the molecule `CN(C(=O)CN1CCOCC1)c1ccc2sc3c(-c4cccc5c(=O)cc(N6CC7CCC(C6)O7)oc45)cccc3c2c1` [NU5455], the inhibition at 1 µM amounted to 0.9%.
